The results in this text go back to publication PMC7669657 (Nature chemical biology, 2020).

For experiment [1], the target named is T1, NSD1 SET domain (Homo sapiens, UniProt Q96L73).
T1 sequence (Q96L73 1852-2085): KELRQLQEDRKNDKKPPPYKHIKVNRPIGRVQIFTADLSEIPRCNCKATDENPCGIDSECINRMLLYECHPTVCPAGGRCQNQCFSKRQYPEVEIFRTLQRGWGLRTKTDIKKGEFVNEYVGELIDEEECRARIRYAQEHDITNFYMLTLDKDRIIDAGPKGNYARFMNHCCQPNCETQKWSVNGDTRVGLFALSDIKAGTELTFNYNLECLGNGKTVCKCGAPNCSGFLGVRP
It counts as binding. To be noted: 150 μM 15N NSD1 SET, 1H-15N HSQC.

Experiment [2] has as its target T2, NSD1 SET domain (Homo sapiens, UniProt Q96L73).
T2 sequence (Q96L73 1852-2105): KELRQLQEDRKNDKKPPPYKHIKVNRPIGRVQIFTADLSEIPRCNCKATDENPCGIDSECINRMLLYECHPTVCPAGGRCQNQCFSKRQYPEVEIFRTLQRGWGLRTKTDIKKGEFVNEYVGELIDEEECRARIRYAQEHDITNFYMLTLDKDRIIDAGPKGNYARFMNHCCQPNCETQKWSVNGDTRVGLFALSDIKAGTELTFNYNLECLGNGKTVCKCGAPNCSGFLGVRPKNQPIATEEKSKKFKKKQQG
Description: MS covalent engagement and kinetics, NSD1 SET. In kind it is binding. Particulars: 1 μM NSD1 SET, 50 μM compound, 18 h, 32 °C.

`COc1cc(Br)cc2sc(N)nc12` [Compound 8]: the “chemical shift perturbations / binding by NMR” value on NSD1 SET domain [1] is given as “less pronounced chemical shift perturbations”.

As for `NC(=O)/C=C/c1cc(O)c2nc(N)sc2c1` [Compound 9], the “covalent binding by MS” value at NSD1 SET domain [2] is on record as “lack covalent binding”. Besides, on NSD1 SET domain [1], the “chemical shift perturbations / binding by NMR” value is “only weakly interact”.
